In patent publication US8034371B2, “Intranasal compositions” (Archimedes Development Limited, priority 2003, dated 2011):
Where a name gives a salt, the structure may show the parent alone.

How the values were obtained:
[1] = Pharmacokinetic performance of intranasal and IV zolpidem formulations in sheep (Example 6); settings: for Tmax: intranasal, zolpidem dose 20 mg, mean n = 5
Protocol: A group of five female sheep was used, each weighing around 45 kg. The formulations were administered to a randomised cross-over design. […] This dose was provided by transferring 3.5 ml of the test formulation into a glass bottle, attaching a Valois VP7 spray pump and actuator to the bottle, priming the pump and then administering two 0.1 ml sprays into each nostril.
Blood samples were collected over a 360 minute period following dosing and plasma separated. Plasma samples were assayed by an HPLC method for zolpidem content. Pharmacokinetic parameters were calculated from the plasma data.

[2] = Semi-quantitative solubility of zolpidem tartrate in different cyclodextrin solutions (Example 1); format: physicochemical; settings: aqueous cyclodextrin solution, aqueous with cosolvent or surfactant or cyclodextrin, thermodynamic from solid, room temperature
Protocol: A semi-quantitative comparison was made of the ability of different cyclodextrins to enhance the aqueous solubility of zolpidem tartrate.
Aqueous solutions were prepared containing 200, 300 and 400 mg/ml of three types of cyclodextrin. These were hydroxypropyl-β-cyclodextrin (HP-CD) (Cavamax® W7 HP Pharma, Wacker, Germany), methylated-β-cyclodextrin (M-CD) (Cavamax® W7 M Pharma, Wacker) and sulfobutylether-β-cyclodextrin (SBE-CD) (Captisol®, CyDex, USA). 25 mg samples of zolpidem tartrate (ZMC, Zheijang, Hangzhou, China) were added to a 0.5 ml portion of each cyclodextrin solution. The mixtures (containing 50 mg/ml drug) were stirred overnight at room temperature. If drug dissolved then more was added. If undissolved drug remained then an additional 0.5 ml of cyclodextrin solution was added and stirring continued. From this experiment an estimate could be made of zolpidem tartrate solubility in the different cyclodextrin solutions.

[3] = Saturated solubility of zolpidem tartrate in SBE-CD solutions with and without chitosan, UV 296 nm (Example 2); format: physicochemical; settings: aqueous SBE-CD solution, 18 °C, aqueous with cosolvent or surfactant or cyclodextrin, thermodynamic from solid
Protocol: A stock solution was prepared containing 400 mg/ml SBE-CD in water and then dilutions made to 100, 150, 200, 250 and 300 mg/ml. Into 2 ml portions of the stock and diluted SBE-CD solutions was dissolved 10 mg of chitosan glutamate (Protasan UPG213, NovaMatrix, Drammen, Norway). To each of these samples of SBE-CD/chitosan solution and to each of six chitosan-free 2 ml samples of SBE-CD solutions were added 140 mg samples of zolpidem tartrate. The samples were left to stir overnight at room temperature (18° C.). If during this time all the drug dissolved, further amounts were added until a suspension was formed (i.e. saturated drug solution formed). After further stirring for up to 72 hours, suspensions were filtered (0.45 μm filter, Gelman, Portsmouth, UK) to recover saturated zolpidem tartrate solutions. The filtrate samples were diluted in water and the UV absorbance at 296 nm measured. By reference to a calibration curve of UV absorbance (296 nm) vs. zolpidem concentration, the concentration of zolpidem in the samples was calculated. Solubility data are presented in Table 2 and presented graphically in FIG. 1.

For `Cc1ccc(-c2nc3ccc(C)cn3c2CC(=O)N(C)C)cc1` [zolpidem, N,N,6-trimethyl-2-(4-methylphenyl)-imidazo[1,2-a]pyridine-3-acetamide], the Tmax ([1]; female, plasma, inhaled or intranasal, 20 mg, Tmax) was 13 min, the “Effect of inclusion of chitosan on bioavailability” value ([1]; intranasal solution with vs without chitosan) was “significantly enhanced” and the Tmax [1] was 16 min.

With `Cc1ccc(-c2nc3ccc(C)cn3c2CC(=O)N(C)C)cc1` [zolpidem tartrate] the solubility ([2]; HP-CD 200 mg/ml) was 25 to 31 mg/mL, the solubility ([2]; HP-CD 300 mg/ml) was 31 to 36 mg/mL and the solubility ([2]; HP-CD 400 mg/ml) was 36 to 50 mg/mL. The solubility ([2]; M-CD 200 mg/ml) was 25 to 31 mg/mL, the solubility ([2]; M-CD 300 mg/ml) was 31 to 36 mg/mL and the solubility ([2]; M-CD 400 mg/ml) was 31 to 36 mg/mL. The solubility ([2]; SBE-CD 200 mg/ml) was > 50 mg/mL, the solubility ([2]; SBE-CD 300 mg/ml) was 50 to 56 mg/mL and the solubility ([2]; SBE-CD 400 mg/ml) was ~60 mg/mL. It also gave a solubility ([3]; SBE-CD 100 mg/ml, 5 mg/ml chitosan glutamate, read-out: Zolpidem tartrate solubility in presence of 5 mg/ml chitosan glutamate) of 46.2 mg/mL, a solubility ([3]; SBE-CD 100 mg/ml, no chitosan, read-out: Zolpidem tartrate solubility) of 41.9 mg/mL and a solubility ([3]; SBE-CD 150 mg/ml, 5 mg/ml chitosan glutamate, read-out: Zolpidem tartrate solubility in presence of 5 mg/ml chitosan glutamate) of 51.9 mg/mL. For the same compound, the solubility ([3]; SBE-CD 150 mg/ml, no chitosan, read-out: Zolpidem tartrate solubility) was 46.5 mg/mL, the solubility ([3]; SBE-CD 200 mg/ml, 5 mg/ml chitosan glutamate, read-out: Zolpidem tartrate solubility in presence of 5 mg/ml chitosan glutamate) was 55.6 mg/mL and the solubility ([3]; SBE-CD 200 mg/ml, no chitosan, read-out: Zolpidem tartrate solubility) was 57.3 mg/mL. For the same compound, the solubility ([3]; SBE-CD 250 mg/ml, 5 mg/ml chitosan glutamate, read-out: Zolpidem tartrate solubility in presence of 5 mg/ml chitosan glutamate) was 55.9 mg/mL, the solubility ([3]; SBE-CD 250 mg/ml, no chitosan, read-out: Zolpidem tartrate solubility) was 56.1 mg/mL and the solubility ([3]; SBE-CD 300 mg/ml, 5 mg/ml chitosan glutamate, read-out: Zolpidem tartrate solubility in presence of 5 mg/ml chitosan glutamate) was 63.7 mg/mL. For the same compound, the solubility ([3]; SBE-CD 300 mg/ml, no chitosan, read-out: Zolpidem tartrate solubility) was 57.5 mg/mL, the solubility ([3]; SBE-CD 400 mg/ml, 5 mg/ml chitosan glutamate, read-out: Zolpidem tartrate solubility in presence of 5 mg/ml chitosan glutamate) was 68.1 mg/mL and the solubility ([3]; SBE-CD 400 mg/ml, no chitosan, read-out: Zolpidem tartrate solubility) was 69 mg/mL.
